Here are results for two compounds from patent US8440460B2, “Methods for transdifferentiating cells” (The Board of Regents of the University of Texas System, priority 2005, dated 2013).

Several values for one entry are separate records, joined by “and”; a condition that tells them apart may be missing. Identical values can stand only once.

Assay [1] deals with normal bone marrow stroma (MSC) CD45-negative cells. The experiment in a line: FACS analysis of CD45 in treated CD45-negative normal bone marrow stroma cells (MSC). The assay is classed as cell-based, human. As to conditions: FIG. 1 schedule.
Protocol: Human bone marrow stroma cells were grown from the bone marrow of healthy individuals as described above. When the cultures matured and formed homogenous layers of fibroblast-looking cells (termed mesenchymal stem cells; MSC), the cells were trypsinized and analyzed by fluorescence activated cell scanner/sorter (FACS; above) for the presence of the cell surface marker CD45. When the adherent fibroblast-like MSC became CD45-negative, the cells were harvested and transferred to another tissue flask (day 1 of culture).
Generation of Bone Marrow Stroma Cell Cultures. […] The culture medium and floating cells were completely aspirated and replaced with fresh tissue culture medium. Upon confluence, cells were exposed to 0.05% trypsin and 0.53 mM EDTA (GIBCO) at 37° C. for 10 min. Following incubation, FCS (v/v) was added for 5 min., the cells were removed from the tissue culture flasks, washed in PBS, transferred to new tissue culture flasks at a low density, and incubated with fresh tissue culture media. The cells were expanded and tested until all hematopoietic elements were no more present and all cells were CD45-negative.
For the normal marrow stoma cultures, human bone marrow stroma cells were grown from the bone marrow of healthy individuals as described above. When the cultures had matured and formed homogenous layers of fibroblast-looking cells, the cells were trypsinized and analyzed by fluorescence activated cell scanner/sorter (FACS; above) for the presence of the cell surface marker CD45. When the adherent fibroblast-like cells became CD45-negative, the cells were harvested and transferred to another tissue flask (day 1 of culture).
The test system of assay [2] is normal bone marrow-derived CD45-negative MSCs. The experiment in a line: FACS analysis of endothelial markers CD133 and VEGFR-2 in treated bone marrow-derived CD45-negative MSCs. The assay is classed as cell-based, human. Particulars: five ng/mL 5-azacytidine days 1 and 4, 100 ng/mL EGF days 7 and 10; FACS day 13. The method, then: FIG. 9: Conversion of normal human bone marrow stroma to endothelial progenitor cells by 5-azacytidine and endothelial growth factor (EGF). Normal bone marrow-derived CD45-negative MSCs were used in this experiment and Five ng/mL of 5-azacytidine was added to culture on days 1 and 4, and 100 ng/mL EGF were added on days 7 and 10. The cultures were analyzed on day 13. The cells were stained with anti-CD133 APC and anti-VEGFR-2 PE antibodies and analyzed by FACS as described above. […] Note that the when treated with AZA+EGF 7.34% of MSC become CD133^+VEGFR-2^+.
In the next set of experiments the inventors determined whether fibroblasts could be reprogrammed to generate endothelial cells. […] Then, the cells were analyzed for the expression of two endothelial cell markers; the endothelial progenitor marker CD-133, as well as the expression of vascular endothelial growth factor-2 receptor (VEGFR-2).
In particular, normal bone marrow-derived CD45-negative mesenchymal cells (ie., bone marrow-derived fibroblastic cells) were used in this experiment and five ng/mL of 5-azacytidine was added to culture on days 1 and 4, and 100 ng/ml EGF were added on days 7 and 10. The cultures were analyzed on day 13. The cells were stained with anti-CD133 APC and anti-VEGFR-2 PE antibodies and analyzed by FACS as described above. […]
(In general: In flow cytometry, cells or beads pass a laser one at a time.)

Assay [3] concerns HS-5 cells. The experiment in a line: CFU-GM colony culture assay in methylcellulose. Particulars: 14 days. The assay is classed as cell-based, human. How it is done:
FIG. 5: HS-5 cells transdifferentiate into hematopoietic colony-forming cells. Converted (see FIG. 1) and untreated HS-5 cells were harvested from the tissue culture flasks and culture in methylcellulose in a cl0nigtenic assay in the presence of 50 ng/mL GM-CSF, 50 ng/mL SCF and erythropoietin as described above. After 14 days the cultures were examined using an inverted microscope.
Colony-forming unit granulocyte-macrophage (CFU-GM) colony culture assay. The colony-forming unit-granulocyte-macrophage (CFU-GM) clonogenic assay was performed as previously described (49). Briefly, 2×10^5 treated and untreated cells were cultured in 0.8% methylcellulose in IMDM (GIBCO) supplemented with 10% FCS, and 50 ng/ml recombinant human granulocyte-macrophage colony-stimulating factor. […] All cultures were evaluated after 14 days for the number of CFU-GM colonies, defined as a cluster of more than 50 cells containing granulocytes, monocytes and macrophages. To identify the cells comprising the CFU-GM colonies, single colonies were microaspirated at random, transferred to glass slides, dried and stained with Write's stain and microscopically analyzed.
Converted (see FIG. 1) and untreated HS-5 cells were harvested from the tissue culture flasks and culture in methylcellulose in a cl0nigtenic assay in the presence of 50 ng/mL GM-CSF, 50 ng/mL SCF and erythropoietin as described above. […]

Assay [4] relates to HS-5 cells. The experiment in a line: Flow cytometry of 5-methylcytidine as a marker of global DNA methylation in HS-5 cells. The assay is classed as cell-based, human. As to conditions: 5-azacytidine 2.5 uM overnight. The method, then: FIG. 3: Azacytidine hypomethylates HS-5 cells. […] HS-5 cells were treated w/ and w/o 5-azacytidine 2.5 uM overnight. After incubation the cells were harvested and washed in PBS. The cells were then fixed and permeabilized using the BD Cytofix/Cytoperm kit (BD Biosciences, San Diego Calif.) as per the kit instructions. After fixation and permeabilization the cells were stained using mouse anti 5-methylcytadine (Serotec Inc., Raleigh N.C.) for 30 minutes. After washing the cells 3 times in the Permwash buffer provided with the BD kit, the mouse antibody was then detected using an RPE labeled rabbit anti mouse IgG (Serotec) for 30 minutes. After 3 additional wash steps, the cells were resuspended in staining buffer (as per the BD kit) and analyzed on a FACSCaliber flow cytometer (BD Immunnocytometry Systems, La Jolla Calif.) for any decrease in 5-methylcytidine. […]
HS-5 cells were treated w/ and w/o 5-azacytidine 2.5 uM overnight. […] After washing the cells 3 times in the Permwash buffer provided with the BD kit, the mouse antibody was then detected using an RPE labeled rabbit anti mouse IgG (Serotec) for 30 minutes. After 3 additional wash steps, the cells were resuspended in staining buffer (as per the BD kit) and analyzed on a FACSCaliber flow cytometer (BD Immunnocytometry Systems, La Jolla Calif.) for any decrease in 5-methylcytidine. […]

In assay [5] the test system is normal human foreskin fibroblasts. Particulars: FIG. 2 schedule, FACS day 6.
In assay [6] the test system is HS-5 fibroblast cell line. The experiment in a line: FACS analysis of hematopoietic cell surface markers (CD45, CD3, CD14, CD19) in treated HS-5 cells. The assay is classed as cell-based, human. Particulars: 5-azacytidine days 1 and 4, GM-CSF 50 ng/mL and SCF 50 ng/mL days 7 and 10 (FIG. 1 schedule), FACS day 13.
Protocol: In these studies, HS-5 fibroblast cells were transferred to tissue culture flasks as described herein. 2.5 μg 5-azacytidine were added to the culture at days 1 and 4. Granulocyte macrophage colony-stimulating factor (GM-CSF; 50 ng/mL) and stem cell factor (SCF; 50 ng/mL) were added to the culture on days 7 and 10. The cells were harvested and analyzed for the presence of hematopoietic cell surface markets such as CD45 on day 13.
The human bone marrow stroma/MSC cell line HS-5 was obtained from ATCC. These fibroblast-like cells are plastic adherent and grow as a single layer in α-medium (GIBCO, Grand Island, N.Y.) supplemented with 10% fetal calf serum (FCS; Hyclone, Logan, Utah). […] When growth factors were added, α-medium was replaced with Iscove's modified Dulbecco's medium (IMDM; GIBCO).
For the HS-5 cultures, HS-5 fibroblast cells were transferred to tissue culture flasks as described. […] The cells were harvested and analyzed for the presence of hematopoietic cell surface markets such as CD45 on day 13.
In these studies, HS-5 cells were incubated with or without 5-azacytidine and/or growth factors according to the schedule described in FIG. 1. On day 13 the cells were harvested and analyzed for the presence of cell surface CD45 by FACS. All viable cells were analyzed and the CD45-corresponding isotypic control was used.

In the case of `Nc1ncn([C@@H]2O[C@H](CO)[C@@H](O)[C@H]2O)c(=O)n1` [5-azacytidine], the “CD45 expression (in words)” value is “slightly increased” in assay [1] (FACS day 13); “unable to give rise to a significant number of blood cells” in assay [1] (FACS day 13, listed as 5-Azacytidine); “remained CD45-negative” in assay [1] (FACS day 13, listed as 5-azcytidine). Also, the “CD133+VEGFR-2+ cells” value in assay [2] is recorded as 4.14%. Moreover, in the assay on HS-5 cells [3], the “microscopic evaluation of the colonies” value is given as “characteristics of mixed granulocyte macrophage lineage”. Further, the “effect on 5-methylcytidine (DNA methylation)” value in the assay on HS-5 cells [4] is “hypomethylates”. Further, in assay [5], the “conversion into CD45-positive cells (in words)” value was “converted them into CD45-positive cells”. In addition, the “lateral/forward scatter analysis of the cell population” value in assay [5] was “generates a new transdifferentiated (“differentiated”) population of cells”. For the same compound, the “cells expressing CD45” value in assay [6] was 3.5% and 11%.
Turning to EGF: epidermal growth factor, in assay [2], the “CD133+VEGFR-2+ cells” value is under 1.5%.
